Patent US7723388B2, “Avian appeasing pheromones to decrease stress, anxiety and aggressiveness” (priority 2002, dated 2010)

System: population of mites (Dermanyssus gallinae, Omithonyssus sylvianm)
Test: In vitro sensitivity of the mite population to mite treatments
Conditions: for Dose to obtain LD50 / Dose to obtain LD100: pd: prescribed dose; for Dose to obtain LD50: 50% of mites killed over 24 hours; for Dose to obtain LD100: 100% of mites killed in 24 hours; for LD 100 at the dose of the product notice: surroundings corresponding to the conditions of breeding
Method: Mites were also tested for during the course of this example. At day 0, the first diffusers of the avian appeasing pheromone were posed and the sampling of mites was effectuated. For the 12 samples that were taken, 5 samples permitted the identification of the species of mites in the breeding; 3 were utilized and placed in a mite culture and recuperated at the end of the internal experiment; and 4 served to test the sensitivity of parasites to the mites used.
On the 5 samples effectuated, […] samples of parasites were identified. 76% (n=86) were identified as Dermanyssus gallinae (chicken mites) and 24% (n=28) were Omithonyssus sylvianm (Northern Fowl mites).
Testing the sensitivity of the mites was next conducted. This test was performed in the population of mites with an in vitro system that verifies the sensitivity of the mite treatment utilized (Carbamate).
The parasites were thus exposed to a variety of concentrations of miticide. The dosage was determined by the value of the notice of dosage recommendation on the product.
Under experimental conditions 2 lots (T1 and T2) were subjected to the tests. The T1 lot corresponded to a universal test, which is not authorized in breeding since Ivermectine was used. Lot 2 corresponded to a test made with Amitraze.

| Molecule | Dose to obtain LD50 [pd] | Dose to obtain LD100 [pd] | LD 100 at the dose of the product notice |
| --- | --- | --- | --- |
| Cc1ccc(/N=C/N(C)/C=N/c2ccc(C)cc2C)c(C)c1 [Amitraze] | 1 | 1 | obtained with the doses prescribed |
| Ivermectine | 1 | 1 | obtained with the doses prescribed |
